Data taken from patent publication US10000791B2, “Measurement method for human pancreatic lipase activity” (ASAHI KASEI PHARMA CORPORATION, priority 2013, dated 2018).

Test system: human pancreatic lipase
Assay: lipase activity measured in control, normal and heparin-administered samples with each reagent (1,2-dioleoyl glycerol, UV method; Liquitech Lipase Color II for verification)
Assay type: biochemical
Design: lipase activity relative to (1) comparative example NaDCA (Table 1): concentration or dose not given beside the values
Conditions: for lipase activity (Table 1): NaDCA pH 8.15, other bile salts pH 7.0; for lipase activity relative to (1) comparative example NaDCA (Table 1): pH 7.0

C[C@H](CCC(=O)NCCS(=O)(=O)[O-])[C@H]1CC[C@H]2[C@@H]3CC[C@@H]4C[C@H](O)CC[C@]4(C)[C@H]3C[C@H](O)[C@]12C.[Na+] [NaTDCA, sodium taurodeoxycholate]
lipase activity (Table 1) (Normal sample 1): 43.4 U/L
lipase activity relative to (1) comparative example NaDCA (Table 1) (Normal sample 1): 111.1%
lipase activity (Table 1) (Normal sample 2): 96.4 U/L
lipase activity relative to (1) comparative example NaDCA (Table 1) (Normal sample 2): 101.4%
lipase activity (Table 1) (Normal sample 3): 50.7 U/L
lipase activity relative to (1) comparative example NaDCA (Table 1) (Normal sample 3): 108.7%
lipase activity (Table 1) (Normal sample 4): 44.5 U/L
lipase activity relative to (1) comparative example NaDCA (Table 1) (Normal sample 4): 102.3%
lipase activity (Table 1) (Normal sample 5): 31.7 U/L
lipase activity relative to (1) comparative example NaDCA (Table 1) (Normal sample 5): 77.8%
lipase activity (Table 1) (sample Heparin 1): 30.1 U/L
lipase activity relative to (1) comparative example NaDCA (Table 1) (sample Heparin 1): 39.2%
lipase activity (Table 1) (sample Heparin 2): 44.2 U/L
lipase activity relative to (1) comparative example NaDCA (Table 1) (sample Heparin 2): 50.9%
lipase activity (Table 1) (sample Heparin 3): 37.9 U/L
lipase activity relative to (1) comparative example NaDCA (Table 1) (sample Heparin 3): 33.6%
lipase activity (Table 1) (sample Heparin 4): 28.9 U/L
lipase activity relative to (1) comparative example NaDCA (Table 1) (sample Heparin 4): 28.5%
lipase activity (Table 1) (sample Heparin 5): 30.1 U/L
lipase activity relative to (1) comparative example NaDCA (Table 1) (sample Heparin 5): 44.0%
lipase activity (Table 1) (sample Heparin 6): 30.1 U/L
lipase activity relative to (1) comparative example NaDCA (Table 1) (sample Heparin 6): 43.4%
lipase activity (Table 1) (sample Heparin 7): 50.4 U/L
lipase activity relative to (1) comparative example NaDCA (Table 1) (sample Heparin 7): 36.4%
lipase activity (Table 1) (sample Heparin 8): 54.7 U/L
lipase activity relative to (1) comparative example NaDCA (Table 1) (sample Heparin 8): 43.4%
lipase activity (Table 1) (sample Heparin 9): 82.4 U/L
lipase activity relative to (1) comparative example NaDCA (Table 1) (sample Heparin 9): 48.8%
lipase activity (Table 3) (sample Heparin 21, pH 6.2): 35.9 U/L
lipase activity (Table 3) (sample Heparin 21, pH 6.4): 37.9 U/L
lipase activity (Table 3) (sample Heparin 21, pH 6.6): 40.9 U/L
lipase activity (Table 3) (sample Heparin 21, pH 6.9): 48.6 U/L
lipase activity (Table 3) (sample Heparin 21, pH 7.2): 47.6 U/L
lipase activity (Table 3) (sample Heparin 21, pH 7.4): 44.5 U/L
lipase activity (Table 3) (sample Heparin 21, pH 7.6): 34.7 U/L
lipase activity (Table 3) (sample Heparin 22, pH 6.2): 39.7 U/L
lipase activity (Table 3) (sample Heparin 22, pH 6.4): 41.7 U/L
lipase activity (Table 3) (sample Heparin 22, pH 6.6): 45.5 U/L
lipase activity (Table 3) (sample Heparin 22, pH 6.9): 53.6 U/L
lipase activity (Table 3) (sample Heparin 22, pH 7.2): 52.6 U/L
lipase activity (Table 3) (sample Heparin 22, pH 7.4): 49.2 U/L
lipase activity (Table 3) (sample Heparin 22, pH 7.6): 38.3 U/L
lipase activity (Table 3) (sample Heparin 23, pH 6.2): 61.0 U/L
lipase activity (Table 3) (sample Heparin 23, pH 6.4): 63.0 U/L
lipase activity (Table 3) (sample Heparin 23, pH 6.6): 71.4 U/L
lipase activity (Table 3) (sample Heparin 23, pH 6.9): 81.7 U/L
lipase activity (Table 3) (sample Heparin 23, pH 7.2): 80.5 U/L
lipase activity (Table 3) (sample Heparin 23, pH 7.4): 75.8 U/L
lipase activity (Table 3) (sample Heparin 23, pH 7.6): 58.6 U/L
lipase activity (Table 3) (sample Heparin 24, pH 6.2): 44.9 U/L
lipase activity (Table 3) (sample Heparin 24, pH 6.4): 46.9 U/L
lipase activity (Table 3) (sample Heparin 24, pH 6.6): 51.8 U/L
lipase activity (Table 3) (sample Heparin 24, pH 6.9): 60.4 U/L
lipase activity (Table 3) (sample Heparin 24, pH 7.2): 59.4 U/L
lipase activity (Table 3) (sample Heparin 24, pH 7.4): 55.7 U/L
lipase activity (Table 3) (sample Heparin 24, pH 7.6): 43.2 U/L
lipase activity (Table 3) (sample Heparin 25, pH 6.2): 38.0 U/L
lipase activity (Table 3) (sample Heparin 25, pH 6.4): 40.0 U/L
lipase activity (Table 3) (sample Heparin 25, pH 6.6): 43.5 U/L
lipase activity (Table 3) (sample Heparin 25, pH 6.9): 51.4 U/L
lipase activity (Table 3) (sample Heparin 25, pH 7.2): 50.4 U/L
lipase activity (Table 3) (sample Heparin 25, pH 7.4): 47.1 U/L
lipase activity (Table 3) (sample Heparin 25, pH 7.6): 36.7 U/L
lipase activity (Table 1) (sample PRECINORM): 52.1 U/L
lipase activity (Table 3) (sample PRECINORM, pH 6.2): 46.8 U/L
lipase activity (Table 3) (sample PRECINORM, pH 6.4): 50.0 U/L
lipase activity (Table 3) (sample PRECINORM, pH 6.6): 52.6 U/L
lipase activity (Table 3) (sample PRECINORM, pH 6.9): 67.1 U/L
lipase activity relative to (1) comparative example NaDCA (Table 1) (sample PRECINORM): 102.1%
lipase activity (Table 3) (sample PRECINORM, pH 7.2): 59.5 U/L
lipase activity (Table 3) (sample PRECINORM, pH 7.4): 57.1 U/L
lipase activity (Table 3) (sample PRECINORM, pH 7.6): 52.0 U/L
lipase activity (Table 1) (sample PRECIPATH): 134.6 U/L
lipase activity (Table 3) (sample PRECIPATH, pH 6.2): 110.7 U/L
lipase activity (Table 3) (sample PRECIPATH, pH 6.4): 109.5 U/L
lipase activity (Table 3) (sample PRECIPATH, pH 6.6): 140.3 U/L
lipase activity (Table 3) (sample PRECIPATH, pH 6.9): 157.3 U/L
lipase activity relative to (1) comparative example NaDCA (Table 1) (sample PRECIPATH): 105.2%
lipase activity (Table 3) (sample PRECIPATH, pH 7.2): 159.2 U/L
lipase activity (Table 3) (sample PRECIPATH, pH 7.4): 152.7 U/L
lipase activity (Table 3) (sample PRECIPATH, pH 7.6): 110.7 U/L
lipase activity (Table 3) (sample Pool 1, pH 6.2): 42.1 U/L
lipase activity (Table 3) (sample Pool 1, pH 6.4): 44.6 U/L
lipase activity (Table 3) (sample Pool 1, pH 6.6): 45.2 U/L
lipase activity (Table 3) (sample Pool 1, pH 6.9): 53.0 U/L
lipase activity (Table 3) (sample Pool 1, pH 7.2): 52.4 U/L
lipase activity (Table 3) (sample Pool 1, pH 7.4): 45.4 U/L
lipase activity (Table 3) (sample Pool 1, pH 7.6): 39.1 U/L
lipase activity (Table 3) (sample Pool 2, pH 6.2): 22.8 U/L
lipase activity (Table 3) (sample Pool 2, pH 6.4): 24.8 U/L
lipase activity (Table 3) (sample Pool 2, pH 6.6): 23.6 U/L
lipase activity (Table 3) (sample Pool 2, pH 6.9): 28.0 U/L
lipase activity (Table 3) (sample Pool 2, pH 7.2): 28.2 U/L
lipase activity (Table 3) (sample Pool 2, pH 7.4): 27.0 U/L
lipase activity (Table 3) (sample Pool 2, pH 7.6): 18.3 U/L
lipase activity (Table 3) (sample Seraclear, pH 6.2): 23.7 U/L
lipase activity (Table 3) (sample Seraclear, pH 6.4): 25.4 U/L
lipase activity (Table 3) (sample Seraclear, pH 6.6): 28.6 U/L
lipase activity (Table 3) (sample Seraclear, pH 6.9): 31.7 U/L
lipase activity (Table 3) (sample Seraclear, pH 7.2): 33.8 U/L
lipase activity (Table 3) (sample Seraclear, pH 7.4): 31.4 U/L
lipase activity (Table 3) (sample Seraclear, pH 7.6): 20.2 U/L
